From BindingDB's records for doi:10.1016/0960-894X(96)00063-7 (1996) come the findings set out here.

For orientation: IC50 means the point on the concentration scale where inhibition reaches its midpoint. Read a low IC50 as greater potency in that assay.

The target of this assay is Squalene monooxygenase (Sus scrofa). As to the kind of experiment: Compound was evaluated for the inhibition of pig liver microsomal squalene epoxidase.

In turn, `CCN(C/C=C/C#CC(C)(C)C)Cc1cccc(NC[Si](C)(C)c2ccccc2C)c1` [(3-{[((E)-6,6-Dimethyl-hept-2-en-4-ynyl)-ethyl-amino]-methyl}-phenyl)-[(dimethyl-o-tolyl-silanyl)-methyl]-amine] returned a half-inhibitory concentration (IC50) of 100 nM. In other words, the sub-micromolar range.
